In ChEMBL document CHEMBL3885861, “Open TG-GATES”:

Species: Rattus norvegicus
Assay: Open TG-GATES - Regimen: Daily Repeat
Format: toxicity, organism-based, Sprague-Dawley
Set-up: regimen Daily Repeat, gender Male, age 6 weeks
Conditions: in vivo, po, 0 mg/kg, route gavage, dose level Control; for KIDNEY_L / KIDNEY_R / KIDNEY_TOTAL: tissue Kidney; for ALP / ALT / AST / BUN / CRE / Ca / Cl / DBIL / GLC / IP / K / LDH / Na / PL / RALB / TBIL / TC / TG / TP / gamma-GTP: tissue Plasma

`CC(=O)Oc1ccccc1C(=O)O` [ASPIRIN] was tested, and the TERMINAL_BW (72 h, time 3 day) was 238.8 g, the APTT (72 h, tissue Blood, time 3 day) was 19.3 s and the Bas (72 h, tissue Blood, time 3 day) was 0%. The Eos (72 h, tissue Blood, time 3 day) was 1%, the Fbg (72 h, tissue Blood, time 3 day) was 216.6 mg/dL and the Hb (72 h, tissue Blood, time 3 day) was 13.1 g/dL. The Ht (72 h, tissue Blood, time 3 day) was 38.5%, the Lym (72 h, tissue Blood, time 3 day) was 82% and the MCH (72 h, tissue Blood, time 3 day) was 21.2 pg. For the same compound, the MCHC (72 h, tissue Blood, time 3 day) was 34.2%, the MCV (72 h, tissue Blood, time 3 day) was 62.1 fL and the Mono (72 h, tissue Blood, time 3 day) was 2.4%. For the same compound, the Neu (72 h, tissue Blood, time 3 day) was 13.4%, the Plat (72 h, tissue Blood, time 3 day) was 121.3 x10_4/uL and the RBC (72 h, tissue Blood, time 3 day) was 620 x10_4/ul. For the same compound, the Ret (72 h, tissue Blood, time 3 day) was 5.9%, the WBC (72 h, tissue Blood, time 3 day) was 98.5 x10_2/uL and the KIDNEY_L (72 h, time 3 day) was 1.1 g. The KIDNEY_R (72 h, time 3 day) was 1.1 g, the KIDNEY_TOTAL (72 h, time 3 day) was 2.1 g and the ALP (72 h, time 3 day) was 970.4 IU/L. For the same compound, the ALT (72 h, time 3 day) was 35.6 IU/L, the AST (72 h, time 3 day) was 73.2 IU/L and the BUN (72 h, time 3 day) was 14.8 mg/dL. For the same compound, the CRE (72 h, time 3 day) was 0.4 mg/dL, the Ca (72 h, time 3 day) was 10.8 mg/dL and the Cl (72 h, time 3 day) was 102.2 meq/L. The DBIL (72 h, time 3 day) was 0.082 mg/dL, the GLC (72 h, time 3 day) was 203.2 mg/dL and the IP (72 h, time 3 day) was 7.1 mg/dL. The K (72 h, time 3 day) was 3.9 meq/L, the LDH (72 h, time 3 day) was 223 IU/L and the Na (72 h, time 3 day) was 140.4 meq/L. The PL (72 h, time 3 day) was 148.8 mg/dL, the RALB (72 h, time 3 day) was 3.4 g/dL and the TBIL (72 h, time 3 day) was 0.1 mg/dL. It also gave a TC (72 h, time 3 day) of 74.6 mg/dL, a TG (72 h, time 3 day) of 99.2 mg/dL and a TP (72 h, time 3 day) of 5.7 g/dL. For the same compound, the gamma-GTP (72 h, time 3 day) was 1 IU/L, the TERMINAL_BW ([…], time 7 day) was 272.8 g and the TERMINAL_BW ([…], time 14 day) was 324.4 g. The TERMINAL_BW ([…], time 28 day) was 389.9 g, the APTT ([…], tissue Blood, time 7 day) was 21.2 s and the Bas ([…], tissue Blood, time 7 day) was 0%. For the same compound, the Eos ([…], tissue Blood, time 7 day) was 1%, the Fbg ([…], tissue Blood, time 7 day) was 211.2 mg/dL and the Hb ([…], tissue Blood, time 7 day) was 13.7 g/dL. It also gave a Ht ([…], tissue Blood, time 7 day) of 40.3%, a Lym ([…], tissue Blood, time 7 day) of 85.6% and an MCH ([…], tissue Blood, time 7 day) of 21.1 pg. For the same compound, the MCHC ([…], tissue Blood, time 7 day) was 34%, the MCV ([…], tissue Blood, time 7 day) was 62.1 fL and the Mono ([…], tissue Blood, time 7 day) was 2%. For the same compound, the Neu ([…], tissue Blood, time 7 day) was 11%, the Plat ([…], tissue Blood, time 7 day) was 128.4 x10_4/uL and the RBC ([…], tissue Blood, time 7 day) was 648.4 x10_4/ul. The Ret ([…], tissue Blood, time 7 day) was 5.3%, the WBC ([…], tissue Blood, time 7 day) was 135.5 x10_2/uL and the APTT ([…], tissue Blood, time 14 day) was 20.2 s. It also gave a Bas ([…], tissue Blood, time 14 day) of 0%, an Eos ([…], tissue Blood, time 14 day) of 0.8% and a Fbg ([…], tissue Blood, time 14 day) of 216.8 mg/dL. The Hb ([…], tissue Blood, time 14 day) was 14.2 g/dL, the Ht ([…], tissue Blood, time 14 day) was 40.6% and the Lym ([…], tissue Blood, time 14 day) was 82.6%. For the same compound, the MCH ([…], tissue Blood, time 14 day) was 20.8 pg, the MCHC ([…], tissue Blood, time 14 day) was 34.9% and the MCV ([…], tissue Blood, time 14 day) was 59.6 fL. The Mono ([…], tissue Blood, time 14 day) was 2%, the Neu ([…], tissue Blood, time 14 day) was 13.4% and the RBC ([…], tissue Blood, time 14 day) was 681.6 x10_4/ul. The Ret ([…], tissue Blood, time 14 day) was 3.4%, the WBC ([…], tissue Blood, time 14 day) was 134.5 x10_2/uL and the APTT ([…], tissue Blood, time 28 day) was 21.5 s. It also gave a Bas ([…], tissue Blood, time 28 day) of 0%, an Eos ([…], tissue Blood, time 28 day) of 1% and a Fbg ([…], tissue Blood, time 28 day) of 210.8 mg/dL. For the same compound, the Hb ([…], tissue Blood, time 28 day) was 15.7 g/dL, the Ht ([…], tissue Blood, time 28 day) was 45.3% and the Lym ([…], tissue Blood, time 28 day) was 81.8%. For the same compound, the MCH ([…], tissue Blood, time 28 day) was 19.3 pg, the MCHC ([…], tissue Blood, time 28 day) was 34.7% and the MCV ([…], tissue Blood, time 28 day) was 55.6 fL. It also gave a Mono ([…], tissue Blood, time 28 day) of 2%, a Neu ([…], tissue Blood, time 28 day) of 13.8% and a PT ([…], tissue Blood, time 28 day) of 12.6 s. The Plat ([…], tissue Blood, time 28 day) was 116.7 x10_4/uL, the RBC ([…], tissue Blood, time 28 day) was 815.4 x10_4/ul and the Ret ([…], tissue Blood, time 28 day) was 1.8%. For the same compound, the WBC ([…], tissue Blood, time 28 day) was 109 x10_2/uL, the KIDNEY_L ([…], time 7 day) was 1.2 g and the KIDNEY_R ([…], time 7 day) was 1.2 g. For the same compound, the KIDNEY_TOTAL ([…], time 7 day) was 2.3 g, the KIDNEY_L ([…], time 14 day) was 1.3 g and the KIDNEY_R ([…], time 14 day) was 1.3 g. For the same compound, the KIDNEY_TOTAL ([…], time 14 day) was 2.5 g, the KIDNEY_L ([…], time 28 day) was 1.4 g and the KIDNEY_R ([…], time 28 day) was 1.4 g. The KIDNEY_TOTAL ([…], time 28 day) was 2.8 g, the ALP ([…], time 7 day) was 844.4 IU/L and the ALT ([…], time 7 day) was 29.2 IU/L. For the same compound, the AST ([…], time 7 day) was 59.2 IU/L, the BUN ([…], time 7 day) was 15.8 mg/dL and the CRE ([…], time 7 day) was 0.4 mg/dL. For the same compound, the Ca ([…], time 7 day) was 10.7 mg/dL, the Cl ([…], time 7 day) was 102.4 meq/L and the DBIL ([…], time 7 day) was 0.096 mg/dL. It also gave a GLC ([…], time 7 day) of 210.8 mg/dL, an IP ([…], time 7 day) of 7.6 mg/dL and a K ([…], time 7 day) of 3.6 meq/L. It also gave an LDH ([…], time 7 day) of 178.2 IU/L, a Na ([…], time 7 day) of 141 meq/L and a PL ([…], time 7 day) of 137.4 mg/dL. The RALB ([…], time 7 day) was 3.4 g/dL, the TBIL ([…], time 7 day) was 0.1 mg/dL and the TC ([…], time 7 day) was 66.4 mg/dL. The TG ([…], time 7 day) was 100.2 mg/dL, the TP ([…], time 7 day) was 5.5 g/dL and the gamma-GTP ([…], time 7 day) was 0.6 IU/L. It also gave an ALP ([…], time 14 day) of 726.8 IU/L, an ALT ([…], time 14 day) of 33.4 IU/L and an AST ([…], time 14 day) of 62.2 IU/L. For the same compound, the BUN ([…], time 14 day) was 17.8 mg/dL, the CRE ([…], time 14 day) was 0.4 mg/dL and the Ca ([…], time 14 day) was 10.8 mg/dL. The Cl ([…], time 14 day) was 103 meq/L, the DBIL ([…], time 14 day) was 0.1 mg/dL and the GLC ([…], time 14 day) was 193.6 mg/dL. For the same compound, the IP ([…], time 14 day) was 7.2 mg/dL, the K ([…], time 14 day) was 3.9 meq/L and the LDH ([…], time 14 day) was 220.2 IU/L. The Na ([…], time 14 day) was 141 meq/L, the PL ([…], time 14 day) was 151.2 mg/dL and the RALB ([…], time 14 day) was 3.3 g/dL. For the same compound, the TBIL ([…], time 14 day) was 0.1 mg/dL, the TC ([…], time 14 day) was 67.8 mg/dL and the TG ([…], time 14 day) was 152.8 mg/dL. For the same compound, the TP ([…], time 14 day) was 5.8 g/dL, the gamma-GTP ([…], time 14 day) was 1 IU/L and the ALP ([…], time 28 day) was 605.4 IU/L. The ALT ([…], time 28 day) was 33.2 IU/L, the AST ([…], time 28 day) was 60.8 IU/L and the BUN ([…], time 28 day) was 17 mg/dL. It also gave a CRE ([…], time 28 day) of 0.5 mg/dL, a Ca ([…], time 28 day) of 10.1 mg/dL and a Cl ([…], time 28 day) of 103.2 meq/L. It also gave a DBIL ([…], time 28 day) of 0.1 mg/dL, a GLC ([…], time 28 day) of 213 mg/dL and an IP ([…], time 28 day) of 6.3 mg/dL. For the same compound, the K ([…], time 28 day) was 3.7 meq/L, the LDH ([…], time 28 day) was 150 IU/L and the Na ([…], time 28 day) was 141 meq/L. It also gave a PL ([…], time 28 day) of 132.4 mg/dL, an RALB ([…], time 28 day) of 3.4 g/dL and a TBIL ([…], time 28 day) of 0.2 mg/dL. The TC ([…], time 28 day) was 65.4 mg/dL, the TG ([…], time 28 day) was 111.6 mg/dL and the TP ([…], time 28 day) was 6 g/dL. For the same compound, the gamma-GTP ([…], time 28 day) was 1.2 IU/L.
